PubChem BioAssay (NCI)
Values joined by “and” are separate entries in the source; they are usually repeats but may differ in a detail not shown here. Equal entries are not always repeated.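 The compound was tested at five concentrations on cells cultured in 96-well plates, with a 48-hour exposure period. GI50 = concentration required for 50% inhibition of growth. TGI marks complete inhibition of growth.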

What was measured:
Experiment in all cases: growth of human tumour cells (NCI), 48 h
CCRF-CEM leukemia = tested on: CCRF-CEM leukemia
HS 578T breast = tested on: HS 578T breast
KM12 colon = tested on: KM12 colon
MALME-3M melanoma = tested on: MALME-3M melanoma
MCF7 breast = tested on: MCF7 breast
OVCAR-5 ovarian = tested on: OVCAR-5 ovarian
SF-295 CNS = tested on: SF-295 CNS
U251 CNS = tested on: U251 CNS
SF-539 CNS = tested on: SF-539 CNS
SW-620 colon = tested on: SW-620 colon

Row | SMILES | TGI (CCRF-CEM leukemia) | TGI (HS 578T breast) [µM] | TGI (KM12 colon) [µM] | TGI (MALME-3M melanoma) [µM] | TGI (MCF7 breast) [µM] | TGI (OVCAR-5 ovarian) | TGI (SF-295 CNS) [µM] | TGI (U251 CNS) [µM] | TGI (SF-539 CNS) [µM] | GI50 (CCRF-CEM leukemia) [µM] | GI50 (KM12 colon) [µM] | GI50 (MCF7 breast) [µM] | GI50 (OVCAR-5 ovarian) [µM] | GI50 (SF-295 CNS) [µM] | GI50 (SF-539 CNS) [µM] | GI50 (SW-620 colon) [µM] | GI50 (U251 CNS) [µM] | TGI (SW-620 colon) [µM] | GI50 (HS 578T breast) [µM] | GI50 (MALME-3M melanoma) [µM]
1 | COc1cc(C2S/C(=C/c3ccccc3)C(=O)N2c2ccc(NC(C)=O)cc2)cc(OC)c1OC (stereo not given) | 20.4 µM | 83.2 | 31 | 55.6 | > 100 | 96.2 µM | > 100 | 38.5 | – | – | – | – | – | – | – | – | – | – | – | –
2 | COc1ccc(-c2csc(=Nc3ccccc3)n2CCCN(C)C)cc1 | > 100 µM | – | 29.5 | – | – | 30.4 µM | 27.6 | > 100 | 32 | – | – | – | – | – | – | – | – | – | – | –
3 | COc1cc([C@@H]2c3cc4c(c(O)c3C[C@H]3COC(=O)[C@@H]32)OCO4)cc(OC)c1OC | 94.3 µM and > 241 µM and > 100 µM | – | – | – | – | 150 µM and > 241 µM and > 100 µM | – | > 100 | – | 0.374 | 0.104 | 0.0349 | 0.725 | 0.109 | 0.065 | 0.123 | 0.183 | – | – | –
4 | Cc1nc2c(c(=O)[nH]1)S/C(=C(/C#N)c1nc3ccccc3[nH]1)N2c1ccccc1 | > 100 µM | – | > 100 | > 100 | – | > 100 µM | > 100 | > 100 | > 100 | – | – | – | – | – | – | – | – | > 100 | – | –
5 | C=C(C)C(=O)O[C@H]1CC2=C[C@@H](C[C@@]3(C)O[C@@H]3[C@H]3OC(=O)C(=C)[C@@H]31)OC2=O | 300 µM | – | 8.6 | 5.62 | 5.42 | 12.2 µM | 11.9 | 14.6 | 8.21 | 1.18 | – | – | – | – | – | – | – | 1.94 | – | –
6 | NC(CSCc1ccc(I)cc1)C(=O)O (stereo not given) | > 100 µM | > 100 | > 100 | > 100 | > 100 | > 100 µM | > 100 | > 100 | – | – | – | – | – | – | – | – | – | > 100 | – | –
7 | CC(=O)N1N=C(c2ccc3ccccc3c2O)CC1c1cccs1 (stereo not given) | > 100 µM | > 100 | 46.4 | > 100 | > 100 | > 100 µM | > 100 | > 100 | 89.2 | – | – | – | – | – | – | – | – | > 100 | – | –
8 | CCOC1=NC(C(F)(F)F)(C(F)(F)F)N=C(N2CCOCC2)O1 | > 100 µM | > 100 | > 100 | – | > 100 | > 100 µM | > 100 | > 100 | > 100 | – | – | – | – | – | – | – | – | > 100 | – | –
9 | COc1nc2ccc(COc3ccc(C(=O)NC(CCC(=O)O)C(=O)O)cc3)cc2nc1OC (stereo not given) | > 10 µM | > 10 | > 10 | – | > 10 | > 10 µM | > 10 | > 10 | > 10 | – | – | – | – | – | – | – | – | > 10 | – | –
10 | O=C1C(Cl)N(c2cccc(Cl)c2)C1c1c[nH]c2ccccc12 (stereo not given) | > 100 µM | – | > 100 | > 100 | – | – | > 100 | > 100 | > 100 | – | – | – | – | – | – | – | – | > 100 | – | –
11 | c1ccc(N2N=C(c3cccc(Nc4ccncc4)c3)CC2c2ccc3c(c2)OCO3)cc1 (stereo not given) | 7.85 µM | 3.42 | 3.18 | 3.06 | 4.25 | 4.85 µM | 3.51 | 3.74 | 3.18 | 1.78 | 1.51 | 1.74 | 2.06 | 1.87 | 1.7 | 1.18 | 1.81 | 2.54 | 1.55 | 1.57
12 | NC(=S)N/N=C/c1nccc2ccccc12 | – | – | > 100 | 0.476 | – | > 100 µM | 2.03 | > 100 | 9.11 | – | – | – | – | – | – | – | – | > 100 | – | –
13 | CC[C@@H]1ON(C)[C@H]2CN(C)C(=O)[C@@H]12 | > 100 µM | > 100 | – | – | > 100 | > 100 µM | > 100 | > 100 | – | – | – | – | – | – | – | – | – | > 100 | – | –
14 | COc1ccc2c(c1O)-c1cc(O)cc3c1[C@@H](C2)N(C)CC3 | 262 µM | – | 114 | 126 | 129 | 63.3 µM | 145 | 250 | 153 | – | – | – | – | – | – | – | – | 145 | – | –
